Reference: ChEMBL document CHEMBL3885861, “Open TG-GATES”

Species on record: Rattus norvegicus
Test: Open TG-GATES - Regimen: Single
Assay type: toxicity, organism-based, Sprague-Dawley
Design: regimen Single, gender Male, age 6 weeks
Conditions: in vivo, iv, route intravenous injection; for APTT / Bas / Eos / Fbg / Hb / Ht / Lym / MCH / MCHC / MCV / Mono / Neu / PT / Plat / RBC / Ret / WBC: tissue Blood; for KIDNEY_L / KIDNEY_R / KIDNEY_TOTAL: tissue Kidney; for LIVER: tissue Liver; for A/G / ALP / ALT / AST / BUN / CRE / Ca / Cl / DBIL / GLC / IP / K / LDH / Na / PL / RALB / TBIL / TC / TG / TP / gamma-GTP: tissue Plasma
[1] = 40 mg/kg, 3 h, dose level Middle
[2] = 40 mg/kg, 6 h, dose level Middle
[3] = 40 mg/kg, 9 h, dose level Middle
[4] = 40 mg/kg, 24 h, dose level Middle
[5] = 120 mg/kg, 3 h, dose level High
[6] = 120 mg/kg, 6 h, dose level High
[7] = 120 mg/kg, 9 h, dose level High
[8] = 120 mg/kg, 24 h, dose level High

CN(C)c1ncnc2c1ncn2[C@@H]1O[C@H](CO)[C@@H](N)[C@H]1O [PUROMYCIN AMINONUCLEOSIDE]
TERMINAL_BW [1]: 219 g
APTT [1]: 21.1 s
Bas [1]: 0%
Eos [1]: 0.4%
Fbg [1]: 283.6 mg/dL
Hb [1]: 12.7 g/dL
Ht [1]: 38%
Lym [1]: 55.6%
MCH [1]: 21.2 pg
MCHC [1]: 33.6%
MCV [1]: 63.3 fL
Mono [1]: 4.2%
Neu [1]: 38%
PT [1]: 16.2 s
Plat [1]: 115.8 x10_4/uL
RBC [1]: 600.8 x10_4/ul
Ret [1]: 6.9%
WBC [1]: 148.2 x10_2/uL
KIDNEY_L [1]: 0.9 g
KIDNEY_R [1]: 1 g
KIDNEY_TOTAL [1]: 1.9 g
LIVER [1]: 9.9 g
A/G [1]: 1.2
ALP [1]: 1624.6 IU/L
ALT [1]: 39.2 IU/L
AST [1]: 74 IU/L
BUN [1]: 14.2 mg/dL
CRE [1]: 0.2 mg/dL
Ca [1]: 11.2 mg/dL
Cl [1]: 105 meq/L
DBIL [1]: 0.002 mg/dL
GLC [1]: 177 mg/dL
IP [1]: 8 mg/dL
K [1]: 4.3 meq/L
LDH [1]: 163.4 IU/L
Na [1]: 140.6 meq/L
PL [1]: 149 mg/dL
RALB [1]: 2.9 g/dL
TBIL [1]: 0.014 mg/dL
TC [1]: 76.2 mg/dL
TG [1]: 127.8 mg/dL
TP [1]: 5.3 g/dL
gamma-GTP [1]: 1 IU/L
TERMINAL_BW [2]: 216.4 g
APTT [2]: 22.5 s
Bas [2]: 0%
Eos [2]: 0.6%
Fbg [2]: 317.6 mg/dL
Hb [2]: 13 g/dL
Ht [2]: 39%
Lym [2]: 57.2%
MCH [2]: 21 pg
MCHC [2]: 33.5%
MCV [2]: 62.8 fL
Mono [2]: 3.4%
Neu [2]: 37.8%
PT [2]: 15.6 s
Plat [2]: 134.5 x10_4/uL
RBC [2]: 620.8 x10_4/ul
Ret [2]: 6.9%
WBC [2]: 125.7 x10_2/uL
KIDNEY_L [2]: 1 g
KIDNEY_R [2]: 1 g
KIDNEY_TOTAL [2]: 1.9 g
LIVER [2]: 9.6 g
A/G [2]: 1.3
ALP [2]: 1345.2 IU/L
ALT [2]: 38.2 IU/L
AST [2]: 68.6 IU/L
BUN [2]: 12.8 mg/dL
CRE [2]: 0.1 mg/dL
Ca [2]: 11.2 mg/dL
Cl [2]: 104.2 meq/L
DBIL [2]: 0 mg/dL
GLC [2]: 175.2 mg/dL
IP [2]: 9.6 mg/dL
K [2]: 4.3 meq/L
LDH [2]: 166.6 IU/L
Na [2]: 139.2 meq/L
PL [2]: 149.2 mg/dL
RALB [2]: 3 g/dL
TBIL [2]: 0.024 mg/dL
TC [2]: 78.4 mg/dL
TG [2]: 81.6 mg/dL
TP [2]: 5.4 g/dL
gamma-GTP [2]: 1.2 IU/L
TERMINAL_BW [3]: 210.8 g
APTT [3]: 21.5 s
Bas [3]: 0%
Eos [3]: 1%
Fbg [3]: 315.4 mg/dL
Hb [3]: 13 g/dL
Ht [3]: 38.9%
Lym [3]: 62%
MCH [3]: 20.6 pg
MCHC [3]: 33.4%
MCV [3]: 61.7 fL
Mono [3]: 2.2%
Neu [3]: 34.6%
PT [3]: 15.9 s
Plat [3]: 132.8 x10_4/uL
RBC [3]: 631.6 x10_4/ul
Ret [3]: 7.2%
WBC [3]: 96.5 x10_2/uL
KIDNEY_L [3]: 0.9 g
KIDNEY_R [3]: 0.9 g
KIDNEY_TOTAL [3]: 1.9 g
LIVER [3]: 8.7 g
A/G [3]: 1.3
ALP [3]: 1104.4 IU/L
ALT [3]: 35.8 IU/L
AST [3]: 67 IU/L
BUN [3]: 12.6 mg/dL
CRE [3]: 0.1 mg/dL
Ca [3]: 11.1 mg/dL
Cl [3]: 104.2 meq/L
DBIL [3]: 0.002 mg/dL
GLC [3]: 176.6 mg/dL
IP [3]: 10.3 mg/dL
K [3]: 4.6 meq/L
LDH [3]: 146 IU/L
Na [3]: 139.6 meq/L
PL [3]: 145.4 mg/dL
RALB [3]: 3.1 g/dL
TBIL [3]: 0.024 mg/dL
TC [3]: 76.4 mg/dL
TG [3]: 103.8 mg/dL
TP [3]: 5.5 g/dL
gamma-GTP [3]: 1.6 IU/L
TERMINAL_BW [4]: 217.2 g
APTT [4]: 20.8 s
Bas [4]: 0%
Eos [4]: 0.8%
Fbg [4]: 315.4 mg/dL
Hb [4]: 13 g/dL
Ht [4]: 37.9%
Lym [4]: 85%
MCH [4]: 21.3 pg
MCHC [4]: 34.3%
MCV [4]: 62 fL
Mono [4]: 3%
Neu [4]: 10.2%
PT [4]: 15.9 s
Plat [4]: 116 x10_4/uL
RBC [4]: 613.4 x10_4/ul
Ret [4]: 6%
WBC [4]: 71.4 x10_2/uL
KIDNEY_L [4]: 1 g
KIDNEY_R [4]: 1 g
KIDNEY_TOTAL [4]: 2 g
LIVER [4]: 9.9 g
A/G [4]: 1.3
ALP [4]: 1315 IU/L
ALT [4]: 46 IU/L
AST [4]: 73 IU/L
BUN [4]: 19.6 mg/dL
CRE [4]: 0.2 mg/dL
Ca [4]: 11.4 mg/dL
Cl [4]: 103.2 meq/L
DBIL [4]: 0.002 mg/dL
GLC [4]: 179.2 mg/dL
IP [4]: 10 mg/dL
K [4]: 4.5 meq/L
LDH [4]: 186.2 IU/L
Na [4]: 140.6 meq/L
PL [4]: 142 mg/dL
RALB [4]: 3.1 g/dL
TBIL [4]: 0.016 mg/dL
TC [4]: 75 mg/dL
TG [4]: 89.4 mg/dL
TP [4]: 5.6 g/dL
gamma-GTP [4]: 1.6 IU/L
TERMINAL_BW [5]: 210.5 g
APTT [5]: 22.4 s
Bas [5]: 0%
Eos [5]: 0.8%
Fbg [5]: 278.6 mg/dL
Hb [5]: 12.8 g/dL
Ht [5]: 37.9%
Lym [5]: 44.4%
MCH [5]: 21.1 pg
MCHC [5]: 33.8%
MCV [5]: 62.5 fL
Mono [5]: 3%
Neu [5]: 51.2%
PT [5]: 16.3 s
Plat [5]: 116 x10_4/uL
RBC [5]: 607 x10_4/ul
Ret [5]: 6.7%
WBC [5]: 133.5 x10_2/uL
KIDNEY_L [5]: 1 g
KIDNEY_R [5]: 0.9 g
KIDNEY_TOTAL [5]: 1.9 g
LIVER [5]: 9 g
A/G [5]: 1.3
ALP [5]: 1280.6 IU/L
ALT [5]: 43.4 IU/L
AST [5]: 82.8 IU/L
BUN [5]: 13.8 mg/dL
CRE [5]: 0.2 mg/dL
Ca [5]: 11 mg/dL
Cl [5]: 104.8 meq/L
DBIL [5]: 0.002 mg/dL
GLC [5]: 163.2 mg/dL
IP [5]: 9.3 mg/dL
K [5]: 4.1 meq/L
LDH [5]: 162.8 IU/L
Na [5]: 141.4 meq/L
PL [5]: 140.4 mg/dL
RALB [5]: 3 g/dL
TBIL [5]: 0.032 mg/dL
TC [5]: 69 mg/dL
TG [5]: 88.2 mg/dL
TP [5]: 5.3 g/dL
gamma-GTP [5]: 1.4 IU/L
TERMINAL_BW [6]: 213.9 g
APTT [6]: 22.1 s
Bas [6]: 0%
Eos [6]: 0.6%
Fbg [6]: 304.8 mg/dL
Hb [6]: 12.6 g/dL
Ht [6]: 37.5%
Lym [6]: 43.2%
MCH [6]: 20.7 pg
MCHC [6]: 33.6%
MCV [6]: 61.6 fL
Mono [6]: 3.6%
Neu [6]: 51.2%
PT [6]: 15.8 s
Plat [6]: 121.6 x10_4/uL
RBC [6]: 608.8 x10_4/ul
Ret [6]: 6.9%
WBC [6]: 133.1 x10_2/uL
KIDNEY_L [6]: 0.9 g
KIDNEY_R [6]: 1 g
KIDNEY_TOTAL [6]: 1.9 g
LIVER [6]: 9.3 g
A/G [6]: 1.3
ALP [6]: 1220.8 IU/L
ALT [6]: 40.8 IU/L
AST [6]: 75 IU/L
BUN [6]: 11.6 mg/dL
CRE [6]: 0.1 mg/dL
Ca [6]: 11.3 mg/dL
Cl [6]: 103.6 meq/L
DBIL [6]: 0.004 mg/dL
GLC [6]: 165.2 mg/dL
IP [6]: 10.4 mg/dL
K [6]: 4.3 meq/L
LDH [6]: 135.8 IU/L
Na [6]: 140 meq/L
PL [6]: 151 mg/dL
RALB [6]: 3 g/dL
TBIL [6]: 0.042 mg/dL
TC [6]: 79.8 mg/dL
TG [6]: 60.4 mg/dL
TP [6]: 5.4 g/dL
gamma-GTP [6]: 1.6 IU/L
TERMINAL_BW [7]: 213.9 g
APTT [7]: 22.8 s
Bas [7]: 0%
Eos [7]: 1%
Fbg [7]: 298.6 mg/dL
Hb [7]: 12.8 g/dL
Ht [7]: 38.3%
Lym [7]: 56%
MCH [7]: 20.9 pg
MCHC [7]: 33.5%
MCV [7]: 62.5 fL
Mono [7]: 2.8%
Neu [7]: 39.6%
PT [7]: 15.4 s
Plat [7]: 116 x10_4/uL
RBC [7]: 614 x10_4/ul
Ret [7]: 6.9%
WBC [7]: 117.1 x10_2/uL
KIDNEY_L [7]: 1 g
KIDNEY_R [7]: 1 g
KIDNEY_TOTAL [7]: 2 g
LIVER [7]: 8.2 g
A/G [7]: 1.2
ALP [7]: 1175.4 IU/L
ALT [7]: 42 IU/L
AST [7]: 79.6 IU/L
BUN [7]: 11.8 mg/dL
CRE [7]: 0.1 mg/dL
Ca [7]: 10.8 mg/dL
Cl [7]: 103.4 meq/L
DBIL [7]: 0 mg/dL
GLC [7]: 176.4 mg/dL
IP [7]: 10.3 mg/dL
K [7]: 4.2 meq/L
LDH [7]: 129.2 IU/L
Na [7]: 139.6 meq/L
PL [7]: 136.6 mg/dL
RALB [7]: 3 g/dL
TBIL [7]: 0.03 mg/dL
TC [7]: 75.4 mg/dL
TG [7]: 56.6 mg/dL
TP [7]: 5.4 g/dL
gamma-GTP [7]: 1.6 IU/L
TERMINAL_BW [8]: 212.8 g
APTT [8]: 20.5 s
Bas [8]: 0%
Eos [8]: 0.6%
Fbg [8]: 343 mg/dL
Hb [8]: 12.9 g/dL
Ht [8]: 37.4%
Lym [8]: 85%
MCH [8]: 20.5 pg
MCHC [8]: 34.6%
MCV [8]: 59.4 fL
Mono [8]: 3.8%
Neu [8]: 9.6%
PT [8]: 15.7 s
Plat [8]: 121.3 x10_4/uL
RBC [8]: 629 x10_4/ul
Ret [8]: 4.1%
WBC [8]: 73.2 x10_2/uL
KIDNEY_L [8]: 0.9 g
KIDNEY_R [8]: 0.9 g
KIDNEY_TOTAL [8]: 1.8 g
LIVER [8]: 9.4 g
A/G [8]: 1.3
ALP [8]: 1135 IU/L
ALT [8]: 39.8 IU/L
AST [8]: 70 IU/L
BUN [8]: 27.2 mg/dL
CRE [8]: 0.2 mg/dL
Ca [8]: 11.4 mg/dL
Cl [8]: 103.4 meq/L
DBIL [8]: 0 mg/dL
GLC [8]: 171.8 mg/dL
IP [8]: 10.5 mg/dL
K [8]: 4.8 meq/L
LDH [8]: 142.8 IU/L
Na [8]: 141 meq/L
PL [8]: 142.4 mg/dL
RALB [8]: 3.2 g/dL
TBIL [8]: 0.028 mg/dL
TC [8]: 79.4 mg/dL
TG [8]: 59.2 mg/dL
TP [8]: 5.8 g/dL
gamma-GTP [8]: 1.4 IU/L
